Assay results taken from patent publication US10961309B2, “Reducing systemic regulatory T cell levels or activity for treatment of disease and injury of the CNS” (Yeda Research and Development Co. Ltd, priority 2014, dated 2021).
Entries after “also recorded” stand apart in the source; their conditions may differ.

Legend:
5XFAD AD-Tg mice = experiment: Morris water maze (MWM); type: in vivo, mouse
Procedure: Mice were given three trials per day, for 4 consecutive days, to learn to find a hidden platform located 1.5 cm below the water surface in a pool (1.1 m in diameter). The water temperature was kept between 21-22° C. Water was made opaque with milk powder. Within the testing room, only distal visual shape and object cues were available to the mice to aid in location of the submerged platform. The escape latency, i.e., the time required to find and climb onto the platform, was recorded for up to 60 s. Each mouse was allowed to remain on the platform for 15 s and was then removed from the maze to its home cage. […] The inter-trial interval for each mouse was 10 min. On day 5, the platform was removed, and mice were given a single trial lasting 60 s without available escape. On days 6 and 7, the platform was placed in the quadrant opposite the original training quadrant, and the mouse was retrained for three sessions each day. Data were recorded using the EthoVision V7.1 automated tracking system (Noldus Information Technology). Statistical analysis was performed using analysis of variance (ANOVA) and the Bonferroni post-hoc test. All MWM testing was performed between 10 a.m. and 5 p.m. during the lights-off phase.

[1] = test system: IFN-γ-expressing immune cells in the CP; experiment: Flow cytometry of CP IFN-γ-expressing immune cells; type: in vivo, mouse; conditions: weekly-GA, 5XFAD AD-Tg mice, end of 1st week of regimen
Procedure: Mice were transcardially perfused with PBS, and tissues were treated as previously described (Baruch et al, 2013). Brains were dissected and the different brain regions were removed under a dissecting microscope (Stemi DV4; Zeiss) in PBS, and tissues were dissociated using the gentleMACS™ dissociator (Miltenyi Biotec). Choroid plexus tissues were isolated from the lateral, third and fourth ventricles of the brain, incubated at 37° C. for 45 min in PBS (with Ca^2+/Mg^2+) containing 400 U/ml collagenase type IV (Worthington Biochemical Corporation), and then manually homogenized by pipetting. Spleens were mashed with the plunger of a syringe and treated with ACK (ammonium chloride potassium) lysing buffer to remove erythrocytes. In all cases, samples were stained according to the manufacturers' protocols. All samples were filtered through a 70 μm nylon mesh, and blocked with anti-Fc CD16/32 (1:100; BD Biosciences). For intracellular staining of IFN-γ, the cells were incubated with […] (10 ng/ml; Sigma-Aldrich) and ionomycin (250 ng/ml; Sigma-Aldrich) for 6 h, and Brefeldin-A (10 μg/ml; Sigma-Aldrich) was added for the last 4 h. Intracellular labeling of cytokines was done with BD Cytofix/Cytoperm™ Plus fixation/permeabilization kit (cat. no. 555028). […] Cells were analyzed on an LSRII cytometer (BD Biosciences) using FlowJo software. […]

Substance | spatial learning and memory (MWM) (5XFAD AD-Tg mice; AD-Tg/DTR+ vs DTx-treated AD-Tg/DTR− mice, 3 weeks after last DTx injection) | spatial learning/memory performance in acquisition, probe and reversal phases of the MWM (5XFAD AD-Tg mice; weekly-GA vs vehicle (PBS), AD-Tg mice, age 6 m) | cognitive performance (5XFAD AD-Tg mice; weekly-GA, 5XFAD AD-Tg mice, MWM 1 week, RAWM 1 and 2 months after last injection) | IFN-γ-producing cells at the CP [1]
Diphtheria toxin [DTx] | better spatial learning/memory performance; also recorded: significant improvement in spatial learning and memory | – | – | –
Glatiramer acetate [GA] | – | better spatial learning/memory performance | improved cognitive performance | increase
